Test results taken from paper PMC7617869, “Molecular glues that inhibit deubiquitylase activity and inflammatory signaling” (Nature Structural & Molecular Biology, 2025).
Several values for one entry are separate records, joined by “and”; a condition that tells them apart may be missing. Identical values can stand only once.

Key:
[1] = test system: ISG expression in SSc PBMCs; assay: SSc PBMC type I IFN signaling gene expression array, unstimulated; type: cell-based, human
Procedure: PBMCs in vitro experiments
Peripheral blood mononuclear cells (PBMCs) from healthy and SSc donors were separated using density gradient method (Leucosep™, Greiner Bio-One International) from EDTA anticoagulated peripheral blood; isolated cells were washed twice by PBS. PBMCs were then incubated in RPMI1640 […]
For healthy PBMCs, cells were stimulated with 20 ng/mL of IFN (+/- compounds or DMSO). For SSc PBMCs, cells were in basal conditions with no additional IFN stimulation. Cells were centrifuged at 300 g for 10 minutes. […]
RNA was extracted from cell pellets using TRIzol™ (ThermoFisher
Scientific, Waltham, MA) and processed using Quick-RNA Miniprep Kit (Zymo Research) as per the manufacturer’s instruction.
For Type I IFN signalling analysis, the human IFN I RT2 Profiler PCR Array (Qiagen, PAMM-016ZE) was performed on available RNA from healthy (n=3) and SSc (n=9) donors. RNA was converted to cDNA using RT2 First Strand Kit (Qiagen). Next, the cDNA was mixed with RT2 SYBR Green Mastermix (Qiagen, Venlo). Successful PCR performance was confirmed by assay tests for genomic DNA contamination, RNA sample quality, as well as single melt curve determination and <35 Ct for each gene, leading to validated gene expression of 67 genes. Relative expression for each gene was determined, firstly by ∆CT calculated using the geometric mean of 4 housekeeping genes (ACTB, GAPDH, HPRT1, RPLP0), followed by 2^(-∆CT), and expressed as fold change to control, according to manufacturer’s guidance. IFN2α-induced ISGs in healthy donors were determined using a Student’s t-test (two-tail distribution and equal variances) on the triplicate fold change in 2^(-ΔCT) values between […]
donors). Heatmaps were generated using the “pheatmap” function in R (v4.0.2) and RStudio (v1.3.1093) applying row scaling to standardise the expression data across samples (R core team 2020.
R Foundation for Statistical Computing). The IFN2α inducible genes determined in healthy donors […]
171-C. To account for Type I IFN signalling heterogeneity across samples, the mean 2^(-∆CT) for each […]
relative gene expression, illustrated as a fold change and visualised in log2. The Type I IFN signalling array data for the patient samples is included in Source Data Figure 6, Extended Data Fig. 9.

[2] = test system: ISRE in THP-1 cells (TLR3 agonist polyI:C); assay: THP-1 ISRE luciferase reporter, polyI:C stimulation; type: cell-based, human; conditions: polyI:C 1 µg/mL, 4 μM compound, 16 h
[3] = unstimulated PBMCs from SSc patients, one value per patient (P1-P9)

## O=C(NC1CCNCC1)c1nn(C(=O)c2c(Cl)cccc2Cl)cc1NC(=O)c1c(Cl)cccc1Cl [JMS-175-2]
[1]; SSc PBMCs (n = 9), 2 µM, 16 h
  number of ISGs (of 34) reduced compared to AP-5-145: 22
[1]; [3]
  ADAR, Type I IFN signalling array raw data: 3.812 and 3.743 and 4.113 and 4.435 and 3.832 and 4.965 and 3.1007 and 4.473 and 4.363
  BST2, Type I IFN signalling array raw data: 2.634 and 3.889 and 3.072 and 2.87 and 3.494 and 3.795 and 4.633 and 2.6092 and 2.483
  CASP1, Type I IFN signalling array raw data: 1.213 and 2.812 and 2.398 and 2.039 and 1.156 and 2.52 and 2.747 and 2.114 and 1.958
  CD86, Type I IFN signalling array raw data: 3.228 and 5.906 and 3.901 and 5.361 and 5.149 and 4.521 and 6.493 and 4.685 and 4.196
  CXCL10, Type I IFN signalling array raw data: 8.71 and 7.706 and 4.205 and 4.635 and 4.659 and 4.1108 and 5.782 and 5.515 and 4.585
  DDX58, Type I IFN signalling array raw data: 2.743 and 2.94 and 3.022 and 3.298 and 2.839 and 3.98 and 3.519 and 2.665 and 2.269
  GBP1, Type I IFN signalling array raw data: 2.158 and 2.728 and 1.98 and 1.48 and 2.261 and 1.7592 and 1.143 and 2.383 and 0.7799
  IFI6, Type I IFN signalling array raw data: 2.425 and 3.947 and 3.076 and 2.468 and 2.755 and 3.753 and 4.379 and 1.895 and 1.403
  IFI16, Type I IFN signalling array raw data: 2.049 and 1.794 and 2.214 and 1.769 and 1.846 and 2.52 and 0.8721 and 1.744 and 1.344
  IFIH1, Type I IFN signalling array raw data: 4.067 and 4.072 and 3.5554 and 2.793 and 3.2049 and 5.377 and 3.587 and 3.865 and 3.376
  IFIT1, Type I IFN signalling array raw data: 6.813 and 5.481 and 4.387 and 3.431 and 4.758 and 6.993 and 4.645 and 3.607 and 3.511
  IFIT2, Type I IFN signalling array raw data: 3.877 and 4.276 and 4.33 and 2.588 and 4.403 and 4.745 and 2.229 and 3.19 and 2.838
  IFIT3, Type I IFN signalling array raw data: 4.821 and 4.968 and 3.571 and 2.478 and 4.365 and 4.923 and 2.496 and 2.53 and 2.343
  IFITM1, Type I IFN signalling array raw data: 1.018 and 0.9593 and 1.422 and 1.403 and 1.369 and 1.662 and 1.509 and 1.105 and 0.5587
  IFITM2, Type I IFN signalling array raw data: 4.116 and 4.7 and 5.192 and 4.824 (2×) and 4.737 and 4.678 and 5.159 and 5.095
  IFITM3, Type I IFN signalling array raw data: 2.916 and 4.165 and 3.837 and 2.08 and 3.733 and 4.352 and 4.508 and 1.719 and 2.211
  IRF1, Type I IFN signalling array raw data: 1.526 and 2.165 and 1.923 and 0.6715 and 1.654 and 1.161 and 1.159 and 2.105 and 0.7689
  IRF7, Type I IFN signalling array raw data: 5.385 and 5.096 and 5.885 and 3.925 and 5.478 and 5.126 and 4.9117 and 4.798 and 3.676
  IRF9, Type I IFN signalling array raw data: 1.63 and 2.363 and 2.229 and 1.688 and 2.545 and 2.717 and 2.001 and 1.778 and 1.074
  ISG15, Type I IFN signalling array raw data: 7.828 and 5.157 and 3.914 and 1.97 and 4.252 and 5.488 and 3.54 and 2.475 and 2.54
  ISG20, Type I IFN signalling array raw data: 2.454 and 3.36 and 3.266 and 3.42 and 2.95 and 3.395 and 3.115 and 4.07 and 2.362
  MX1, Type I IFN signalling array raw data: 4.39 and 3.317 and 4.478 and 2.343 and 4.002 and 5.299 and 4.681 and 3.297 and 2.96
  MX2, Type I IFN signalling array raw data: 4.119 and 3.616 and 4.1617 and 3.303 and 3.807 and 5.104 and 3.9466 and 3.181 and 2.652
  MYD88, Type I IFN signalling array raw data: 2.47 and 3.66 and 3.439 and 3.359 and 3.397 and 3.681 and 4.188 and 3.514 and 3.446
  NMI, Type I IFN signalling array raw data: 1.562 and 2.473 and 2.043 and 2.157 and 2.037 and 2.367 and 1.861 and 2.107 and 1.945
  OAS1, Type I IFN signalling array raw data: 3.9946 and 5.08 and 3.975 and 3.103 and 3.832 and 4.439 and 4.753 and 3.122 and 2.562
  OAS2, Type I IFN signalling array raw data: 4.012 and 3.3146 and 4.469 and 3.575 and 4.215 and 3.938 and 4.568 and 3.269 and 1.99
  PML, Type I IFN signalling array raw data: 3.464 and 4.0817 and 4.578 and 3.206 and 4.344 and 4.48 and 3.583 and 3.774 and 3.137
  SOCS1, Type I IFN signalling array raw data: 3.527 and 3.231 and 4.351 and 3.055 and 4.321 and 4.161 and 3.784 and 3.314 and 2.261
  STAT1, Type I IFN signalling array raw data: 0.658 and 1.171 and -0.3774 and -0.03547 and 0.5032 and 0.1577 and 0.4735 and 0.157 and -0.9535
  STAT2, Type I IFN signalling array raw data: 3.702 and 3.438 and 3.148 and 3.834 and 3.166 and 3.676 and 3.7416 and 3.178 and 2.42
  STAT3, Type I IFN signalling array raw data: 1.85 and 1.467 and 4.524 and 1.728 and 2.05 and 2.151 and 1.4 and 1.718 and 1.637
  TAP1, Type I IFN signalling array raw data: 1.739 and 1.988 and 2.594 and 1.8192 and 2.316 and 2.659 and 1.447 and 2.0534 and 1.014
  TNFSF10, Type I IFN signalling array raw data: 2.971 and 3.81 and 3.83 and 3.393 and 3.712 and 3.506 and 3.8599 and 3.839 and 2.706
[2]
  ISRE luciferase signal in THP-1 supernatant: 486.333 and 543 and 491
